Values joined by “and” are separate entries in the source; they are usually repeats but may differ in a detail not shown here. Equal values may be shown once.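 GI50: concentration for 50% inhibition of growth. TGI: concentration producing complete growth inhibition.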
What was measured:
Assay in all cases: NCI tumour cell line growth inhibition, 384-well format
786-0 renal = test system: 786-0 renal
A498 renal = test system: A498 renal
A549 NSCLC = test system: A549 NSCLC
ACHN renal = test system: ACHN renal
BT-549 breast = test system: BT-549 breast
CAKI-1 renal = test system: CAKI-1 renal
COLO 205 colon = test system: COLO 205 colon
DU-145 prostate = test system: DU-145 prostate
EKVX NSCLC = test system: EKVX NSCLC
HCC-2998 colon = test system: HCC-2998 colon
HCT-116 colon = test system: HCT-116 colon
HCT-15 colon = test system: HCT-15 colon
HL-60(TB) leukemia = test system: HL-60(TB) leukemia
HOP-62 NSCLC = test system: HOP-62 NSCLC
HOP-92 NSCLC = test system: HOP-92 NSCLC
HS 578T breast = test system: HS 578T breast
HT29 colon = test system: HT29 colon
IGROV1 ovarian = test system: IGROV1 ovarian
K-562 leukemia = test system: K-562 leukemia
KM12 colon = test system: KM12 colon
LOX IMVI melanoma = test system: LOX IMVI melanoma
M14 melanoma = test system: M14 melanoma
MALME-3M melanoma = test system: MALME-3M melanoma
MCF7 breast = test system: MCF7 breast
MDA-MB-231 breast = test system: MDA-MB-231 breast
MDA-MB-435 melanoma = test system: MDA-MB-435 melanoma
MDA-MB-468 breast = test system: MDA-MB-468 breast
MOLT-4 leukemia = test system: MOLT-4 leukemia
NCI-H226 lung = test system: NCI-H226 lung
NCI-H23 lung = test system: NCI-H23 lung
NCI-H322M lung = test system: NCI-H322M lung
NCI-H460 NSCLC = test system: NCI-H460 NSCLC
NCI-H522 lung = test system: NCI-H522 lung
NCI/ADR-RES ovarian = test system: NCI/ADR-RES ovarian
OVCAR-3 ovarian = test system: OVCAR-3 ovarian
OVCAR-4 ovarian = test system: OVCAR-4 ovarian
OVCAR-5 ovarian = test system: OVCAR-5 ovarian
OVCAR-8 ovarian = test system: OVCAR-8 ovarian
PC-3 prostate = test system: PC-3 prostate
RPMI-8226 leukemia = test system: RPMI-8226 leukemia
RXF 393 renal = test system: RXF 393 renal
SF-268 CNS = test system: SF-268 CNS
SF-295 CNS = test system: SF-295 CNS
SF-539 CNS = test system: SF-539 CNS
SK-MEL-2 melanoma = test system: SK-MEL-2 melanoma
SK-MEL-28 melanoma = test system: SK-MEL-28 melanoma
SK-MEL-5 melanoma = test system: SK-MEL-5 melanoma
SK-OV-3 ovarian = test system: SK-OV-3 ovarian
SN12C renal = test system: SN12C renal
SNB-19 CNS = test system: SNB-19 CNS
SNB-75 CNS = test system: SNB-75 CNS
SR leukemia = test system: SR leukemia
SW-620 colon = test system: SW-620 colon
T-47D breast = test system: T-47D breast
TK-10 renal = test system: TK-10 renal
U251 glioblastoma = test system: U251 glioblastoma
UACC-257 melanoma = test system: UACC-257 melanoma
UACC-62 melanoma = test system: UACC-62 melanoma
UO-31 renal = test system: UO-31 renal

## COCCNCCc1cccc(Nc2ncc3c(n2)-c2ccccc2C(c2ccccc2F)C3)c1 (configuration not stated)
786-0 renal
  GI50: 1250 nM and 1500 nM
  TGI: 2520 nM and 2850 nM
A498 renal
  GI50: 1290 nM and 1430 nM
  TGI: 2570 nM and 2760 nM
A549 NSCLC
  GI50: 1780 nM and 1660 nM
  TGI: 3.21 µM and 3.07 µM
ACHN renal
  GI50: 1540 nM and 1300 nM
  TGI: 2890 nM and 2600 nM
BT-549 breast
  GI50: 1340 nM and 1690 nM
  TGI: 2630 nM and 3080 nM
CAKI-1 renal
  GI50: 1310 nM and 1000 nM
  TGI: 2610 nM and 2350 nM
COLO 205 colon
  GI50: 1760 nM and 1740 nM
  TGI: 3.17 µM and 3.15 µM
DU-145 prostate
  GI50: 1680 nM and 1760 nM
  TGI: 3.07 µM and 3.17 µM
EKVX NSCLC
  GI50: 1550 nM
  TGI: 2910 nM
HCC-2998 colon
  GI50: 1190 nM and 1540 nM
  TGI: 2440 nM and 2900 nM
HCT-116 colon
  GI50: 1490 nM and 1740 nM
  TGI: 2.86 µM and 3.17 µM
HCT-15 colon
  GI50: 1200 nM and 1300 nM
  TGI: 2480 nM and 2620 nM
HL-60(TB) leukemia
  GI50: 563 nM and 1950 nM
  TGI: 1050 nM and 3390 nM
HOP-62 NSCLC
  GI50: 1780 nM
  TGI: 3.18 µM and 3.19 µM
HOP-92 NSCLC
  GI50: 1550 nM and 1610 nM
  TGI: 2900 nM and 2970 nM
HS 578T breast
  GI50: 1300 nM and 1590 nM
  TGI: 2570 nM and 2940 nM
HT29 colon
  GI50: 1520 nM and 1580 nM
  TGI: 2890 nM and 2980 nM
IGROV1 ovarian
  GI50: 1160 nM and 1190 nM
  TGI: 2390 nM and 2430 nM
K-562 leukemia
  GI50: 186 nM and 75.8 nM
  TGI: 402 nM and 214 nM
KM12 colon
  GI50: 1560 nM and 1740 nM
  TGI: 2920 nM and 3150 nM
LOX IMVI melanoma
  GI50: 1360 nM and 1490 nM
  TGI: 2650 nM and 2830 nM
M14 melanoma
  GI50: 1850 nM and 2140 nM
  TGI: 3.26 µM and 3.61 µM
MALME-3M melanoma
  GI50: 1900 nM and 2030 nM
  TGI: 3.31 µM and 3.47 µM
MCF7 breast
  GI50: 1280 nM and 1450 nM
  TGI: 2590 nM and 2820 nM
MDA-MB-231 breast
  GI50: 1630 nM and 1430 nM
  TGI: 3000 nM and 2750 nM
MDA-MB-435 melanoma
  GI50: 1880 nM and 1910 nM
  TGI: 3.3 µM and 3.34 µM
MDA-MB-468 breast
  GI50: 2040 nM and 1950 nM
  TGI: 3.47 µM and 3.37 µM
MOLT-4 leukemia
  GI50: 670 nM and 543 nM
  TGI: 1950 nM and 1790 nM
NCI-H226 lung
  GI50: 1220 nM and 1500 nM
  TGI: 2470 nM and 2840 nM
NCI-H23 lung
  GI50: 1640 nM and 1740 nM
  TGI: 3.02 µM and 3.13 µM
NCI-H322M lung
  GI50: 1720 nM and 1700 nM
  TGI: 3.11 µM and 3.09 µM
NCI-H460 NSCLC
  GI50: 657 nM and 1300 nM
  TGI: 1860 nM and 2650 nM
NCI-H522 lung
  GI50: 1670 nM and 1320 nM
  TGI: 3050 nM and 2610 nM
NCI/ADR-RES ovarian
  GI50: 1800 nM and 1890 nM
  TGI: 3.21 µM and 3.38 µM
OVCAR-3 ovarian
  GI50: 1330 nM and 1370 nM
  TGI: 2630 nM and 2680 nM
OVCAR-4 ovarian
  GI50: 1330 nM and 1340 nM
  TGI: 2630 nM and 2640 nM
OVCAR-5 ovarian
  GI50: 1790 nM and 1800 nM
  TGI: 3.2 µM and 3.23 µM
OVCAR-8 ovarian
  GI50: 1800 nM and 1680 nM
  TGI: 3.22 µM and 3.08 µM
PC-3 prostate
  GI50: 1590 nM and 1400 nM
  TGI: 2960 nM and 2720 nM
RPMI-8226 leukemia
  GI50: 683 nM and 701 nM
  TGI: 1860 nM and 1940 nM
RXF 393 renal
  GI50: 612 nM and 1260 nM
  TGI: 1840 nM and 2520 nM
SF-268 CNS
  GI50: 1600 nM and 1650 nM
  TGI: 2960 nM and 3030 nM
SF-295 CNS
  GI50: 1740 nM and 1820 nM
  TGI: 3.14 µM and 3.23 µM
SF-539 CNS
  GI50: 1040 nM and 1550 nM
  TGI: 2320 nM and 2910 nM
SK-MEL-2 melanoma
  GI50: 1360 nM and 1410 nM
  TGI: 2650 nM and 2730 nM
SK-MEL-28 melanoma
  GI50: 1760 nM and 1830 nM
  TGI: 3.15 µM and 3.24 µM
SK-MEL-5 melanoma
  GI50: 1890 nM and 1860 nM
  TGI: 3.31 µM and 3.28 µM
SK-OV-3 ovarian
  GI50: 1350 nM and 1420 nM
  TGI: 2650 nM and 2760 nM
SN12C renal
  GI50: 1310 nM and 906 nM
  TGI: 2600 nM and 2340 nM
SNB-19 CNS
  GI50: 1920 nM and 1930 nM
  TGI: 3.35 µM and 3.37 µM
SNB-75 CNS
  GI50: 1430 nM and 1540 nM
  TGI: 2750 nM and 2880 nM
SR leukemia
  GI50: 255 nM and 168 nM
  TGI: 421 nM and 358 nM
SW-620 colon
  GI50: 1830 nM and 2290 nM
  TGI: 3.24 µM and 3.77 µM
T-47D breast
  GI50: 1610 nM and 1710 nM
  TGI: 2.97 µM and 3.1 µM
TK-10 renal
  GI50: 1680 nM and 1620 nM
  TGI: 3.06 µM and 2.99 µM
U251 glioblastoma
  GI50: 1670 nM and 1980 nM
  TGI: 3.07 µM and 3.44 µM
UACC-257 melanoma
  GI50: 1540 nM and 1670 nM
  TGI: 2900 nM and 3060 nM
UACC-62 melanoma
  GI50: 1770 nM and 1650 nM
  TGI: 3.18 µM and 3.04 µM
UO-31 renal
  GI50: 1780 nM and 1740 nM
  TGI: 3.18 µM and 3.14 µM

## Cc1cc(Nc2ncc(F)c(N[C@H]3[C@@H](C(N)=O)[C@@H]4C=C[C@H]3C4)n2)ccc1N1CCN(C)CC1
A549 NSCLC
  GI50: 20.1 nM
  TGI: 3.25 µM
BT-549 breast
  GI50: 14.6 nM
  TGI: 51.5 nM
CAKI-1 renal
  GI50: < 10 nM
  TGI: 1200 nM
COLO 205 colon
  GI50: < 10 nM
  TGI: < 0.01 µM
HL-60(TB) leukemia
  GI50: < 10 nM
  TGI: 1030 nM
HOP-62 NSCLC
  GI50: 25 nM
  TGI: 0.237 µM
HOP-92 NSCLC
  GI50: 15.6 nM
  TGI: 184 nM
HS 578T breast
  GI50: 12.6 nM
  TGI: 95.6 nM
HT29 colon
  GI50: 44.4 nM
  TGI: 1140 nM
KM12 colon
  GI50: 173 nM
  TGI: 1500 nM
M14 melanoma
  GI50: < 10 nM
  TGI: 2.1 µM
MALME-3M melanoma
  GI50: < 10 nM
  TGI: 1.34 µM
MCF7 breast
  GI50: 436 nM
  TGI: 2140 nM
MDA-MB-231 breast
  GI50: 26 nM
  TGI: 1570 nM
NCI-H226 lung
  GI50: 25.7 nM
  TGI: 661 nM
NCI-H23 lung
  GI50: 35.9 nM
  TGI: 1.16 µM
NCI-H322M lung
  GI50: 766 nM
  TGI: 2.26 µM
OVCAR-8 ovarian
  GI50: 88 nM
  TGI: 0.385 µM
RPMI-8226 leukemia
  GI50: < 10 nM
  TGI: < 10 nM
RXF 393 renal
  GI50: 30.5 nM
  TGI: 294 nM
SF-268 CNS
  GI50: 73.5 nM
  TGI: 866 nM
SF-295 CNS
  GI50: 21.8 nM
  TGI: 0.276 µM
SF-539 CNS
  GI50: 24.8 nM
  TGI: 138 nM
SK-MEL-28 melanoma
  GI50: 1210 nM
  TGI: 2.55 µM
SNB-75 CNS
  GI50: 15.2 nM
  TGI: 119 nM
SR leukemia
  GI50: < 10 nM
  TGI: < 10 nM
SW-620 colon
  GI50: 26.2 nM
  TGI: 1.5 µM

From PubChem BioAssay (NCI)
